Data published in patent US6355799B1, “Substituted benzene compounds, process for their preparation, and herbicidal and defoliant compositions containing them” (ISK Americas Incorporated, priority 1997, dated 2002).

What was measured:
Assay type in all cases: in vivo
[1] = system: redroot pigweed (Amaranthus retroflexus, AMARE); experiment: Pre-emerge test, greenhouse herbicide activity screening; conditions: pre-emerge, 14 days after application
Summary of the method: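 Compounds in acetone were track-sprayed at 187 l/ha, 15–1000 g ai/ha, onto sandy loam pots. Pre-emerge seeds were sown one day before spraying, with surface watering afterwards. Post-emerge plants were at the 2–3 leaf stage and sprayed with 0.25% v/v non-ionic surfactant. Injury was rated 0–100 at 14 days.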

[2] = system: barnyardgrass (Echinochloa crus-galli, ECHCG); experiment: as above; conditions: pre-emerge, 14 days after application
Text: (§1) A standard greenhouse herbicide activity screening system was used to evaluate the herbicidal efficacy and crop safety of these test compounds. Seven broadleaf weed species including redroot pigweed (Amaranthus retroflexus, AMARE, velvetleaf (Abutilon theophrasti, ABUTH), sicklepod (Cassia obtusifolia, CASOB), ivyleaf morningglory (Ipomoea hederacea, IPOHE), lambsquarters (Chenopodium album, CHEAL), common ragweed (Ambrosia artemisizfolia L., AMBEL), and cocklebur (Xanthium strumarium, XANST) were used as test species. Four grass weed species including green foxtail (Setaria viridis, SETVI), barnyardgrass (Echinochloa crus-galli, ECHCG), johnsongrass (Sorghum halepense, SORHA), and large crabgrass (Digitaria sanguinalis, DIGSA) were also used. In addition, three crop species, field corn (Zea mays L., var. Dekalb 535, CORN), soybean (Glycine max L., var. Pella 86, SOY), and is upland rice (Oryza sp., var. Tebonnet, RICE) were included.
(§2) All plants were grown in 10 cm square plastic pots which were filled with a sandy loam soil mix. For pre-emerge tests, seeds were planted one day prior to application of the test compounds. For post-emerge tests, seeds were planted 8-21 days prior to the test to allow emergence and good foliage development prior to application of the test substances. At the time of the post-emerge application, plants of all species were usually at the 2-3 leaf stage of development.
(§3) All test compounds Were dissolved in acetone and applied to the test units in a volume of 187 l /ha. Test materials were applied at rates ranging from 15 g ai/ha to 1000 g ai/ha using a track sprayer equipped with a TJ8001E even flow flat fan spray nozzle. Plants were arranged on a shelf so that the top of the canopy (post-emerge) or top of the soil surface (pre-emerge) was 40-45 cm below the nozzle. Pressurized air was used to force the test solution through the nozzle as it was mechanically advanced (via electrically driven chain drive) over the top of all test plants/pots. This application simulates a typical commercial field herbicide application.
(§4) In the post-emerge test, a commercial non-ionic surfactant was also included (0.25% v/v) to enhance wetting of the leaf surfaces of target plants. Immediately after application, test units of the pre-emerge applications were watered at the soil surface to incorporate the test materials. Subsequently, these test units were bottom-watered. Post-emerge test units were always bottom-watered.
(§5) At 14 days after application of the test materials, phytotoxicity ratings were recorded. A rating scale of 0-100 was used as previously described in Research Methods in Weed Science, 2nd edition, B. Truelove, Ed., Southern Weed Science Society, Auburn University, Auburn, Ala. 1977. Briefly, “0” corresponds to no damage and “100” corresponds to complete death of all plants in the test unit. This scale was used both to determine efficacy against weed species and damage to crop species. Herbicide activity data for various compounds of this invention, which are shown by compound No. in Tables 1-8, are shown in Tables 11 and 12.

[3] = system: green foxtail (Setaria viridis, SETVI); experiment: as above; conditions: pre-emerge, 14 days after application
Text: as §1, §2, §3, §4, §5

[4] = system: ivyleaf morningglory (Ipomoea hederacea, IPOHE); experiment: as above; conditions: pre-emerge, 14 days after application
Text: as §1, §2, §3, §4, §5

[5] = system: lambsquarters (Chenopodium album, CHEAL); experiment: as above; conditions: pre-emerge, 14 days after application
Text: as §1, §2, §3, §4, §5

[6] = system: large crabgrass (Digitaria sanguinalis, DIGSA); experiment: as above; conditions: pre-emerge, 14 days after application
Text: as §1, §2, §3, §4, §5

[7] = system: sicklepod (Cassia obtusifolia, CASOB); experiment: as above; conditions: pre-emerge, 14 days after application
Text: as §1, §2, §3, §4, §5

[8] = system: velvetleaf (Abutilon theophrasti, ABUTH); experiment: as above; conditions: pre-emerge, 14 days after application
Text: as §1, §2, §3, §4, §5

[9] = system: field corn (Zea mays L., var. Dekalb 535, CORN); experiment: Pre-emerge test, crop safety; conditions: pre-emerge, 14 days after application; for phytotoxicity rating CORN: rating scale 0-100; for phytotoxicity rating CORN (crop damage): scale 0-100
Summary of the method: (§6)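 Compounds in acetone were track-sprayed at 15-1000 g ai/ha (187 l/ha) on sandy loam pots: pre-emerge one day after seeding, post-emerge at 2-3 leaf stage with 0.25% v/v non-ionic surfactant. Phytotoxicity was rated 14 days later on a 0 (no damage) to 100 (complete death) scale.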

[10] = system: upland rice (Oryza sp., var. Tebonnet, RICE); experiment: Pre-emerge test, crop safety; conditions: pre-emerge, 14 days after application; for phytotoxicity rating RICE: rating scale 0-100; for phytotoxicity rating RICE (crop damage): scale 0-100
Summary of the method: as §6

[11] = system: barnyardgrass (Echinochloa crus-galli, ECHCG); experiment: Post-emerge test, greenhouse herbicide activity screening; conditions: post-emerge, 14 days after application, rating scale 0-100
Text: as §1, §2, §3, §4, §5

[12] = system: green foxtail (Setaria viridis, SETVI); experiment: as above; conditions: post-emerge, 14 days after application, rating scale 0-100
Text: as §1, §2, §3, §4, §5

[13] = system: ivyleaf morningglory (Ipomoea hederacea, IPOHE); experiment: as above; conditions: post-emerge, 14 days after application, rating scale 0-100
Text: as §1, §2, §3, §4, §5

[14] = system: lambsquarters (Chenopodium album, CHEAL); experiment: as above; conditions: post-emerge, 14 days after application, rating scale 0-100
Text: as §1, §2, §3, §4, §5

[15] = system: large crabgrass (Digitaria sanguinalis, DIGSA); experiment: as above; conditions: post-emerge, 14 days after application, rating scale 0-100
Text: as §1, §2, §3, §4, §5

[16] = system: redroot pigweed (Amaranthus retroflexus, AMARE); experiment: as above; conditions: post-emerge, 14 days after application
Text: as §1, §2, §3, §4, §5

[17] = system: sicklepod (Cassia obtusifolia, CASOB); experiment: as above; conditions: post-emerge, 14 days after application, rating scale 0-100
Text: as §1, §2, §3, §4, §5

[18] = system: velvetleaf (Abutilon theophrasti, ABUTH); experiment: as above; conditions: post-emerge, 14 days after application, rating scale 0-100
Text: as §1, §2, §3, §4, §5

[19] = system: field corn (Zea mays L., var. Dekalb 535, CORN); experiment: Post-emerge test, crop safety; conditions: post-emerge, 14 days after application, rating scale 0-100
Summary of the method: (§7)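 Applied at 15–1000 g ai/ha from acetone in 187 l/ha spray volume. Post-emergence applications included 0.25% v/v non-ionic surfactant and reached plants sown 8–21 days before. Pre-emergence applications were incorporated by surface watering. Efficacy or crop damage was rated on a 0–100 scale after 14 days.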

[20] = system: upland rice (Oryza sp., var. Tebonnet, RICE); experiment: Post-emerge test, crop safety; conditions: post-emerge, 14 days after application, rating scale 0-100
Summary of the method: as §7

[21] = 250 g ai/ha, rating scale 0-100

SMILES: COc1c(Cl)cc(F)c(-n2c(=O)cc(C(F)(F)F)n(C)c2=O)c1NNC(=O)c1ccc2ccccc2c1 [15-5]
- phytotoxicity rating AMARE ([1]; 63 g ai/ha, rating scale 0-100): 100
- phytotoxicity rating AMARE [1, 21]: 100
- phytotoxicity rating ECHCG ([2]; 63 g ai/ha, rating scale 0-100): 70
- phytotoxicity rating ECHCG [2, 21]: 99
- phytotoxicity rating SETVI ([3]; 63 g ai/ha, rating scale 0-100): 100
- phytotoxicity rating SETVI [3, 21]: 100
- phytotoxicity rating IPOHE ([4]; 63 g ai/ha, rating scale 0-100): 100
- phytotoxicity rating IPOHE [4, 21]: 100
- phytotoxicity rating CHEAL ([5]; 63 g ai/ha, rating scale 0-100): 100
- phytotoxicity rating CHEAL [5, 21]: 100
- phytotoxicity rating DIGSA ([6]; 63 g ai/ha, rating scale 0-100): 100
- phytotoxicity rating DIGSA [6, 21]: 100
- phytotoxicity rating CASOB ([7]; 63 g ai/ha, rating scale 0-100): 100
- phytotoxicity rating CASOB [7, 21]: 100
- phytotoxicity rating ABUTH ([8]; 63 g ai/ha, rating scale 0-100): 100
- phytotoxicity rating ABUTH [8, 21]: 100
- phytotoxicity rating CORN ([9]; 63 g ai/ha): 80
- phytotoxicity rating CORN ([9]; 250 g ai/ha): 99
- phytotoxicity rating RICE ([10]; 63 g ai/ha): 70
- phytotoxicity rating RICE ([10]; 250 g ai/ha): 99
- Post-emerge Herbicidal Activity ECHCG (phytotoxicity rating) ([11]; 63 g ai/ha): 40
- Post-emerge Herbicidal Activity ECHCG (phytotoxicity rating) ([11]; 250 g ai/ha): 90
- Post-emerge Herbicidal Activity SETVI (phytotoxicity rating) ([12]; 63 g ai/ha): 40
- Post-emerge Herbicidal Activity SETVI (phytotoxicity rating) ([12]; 250 g ai/ha): 80
- Post-emerge Herbicidal Activity IPOHE (phytotoxicity rating) ([13]; 63 g ai/ha): 90
- Post-emerge Herbicidal Activity IPOHE (phytotoxicity rating) ([13]; 250 g ai/ha): 100
- Post-emerge Herbicidal Activity CHEAL (phytotoxicity rating) ([14]; 63 g ai/ha): 100
- Post-emerge Herbicidal Activity CHEAL (phytotoxicity rating) ([14]; 250 g ai/ha): 100
- Post-emerge Herbicidal Activity DIGSA (phytotoxicity rating) ([15]; 63 g ai/ha): 30
- Post-emerge Herbicidal Activity DIGSA (phytotoxicity rating) ([15]; 250 g ai/ha): 70
- Post-emerge Herbicidal Activity AMARE (phytotoxicity rating) ([16]; 63 g ai/ha, rating scale 0-100 (0 no damage, 100 complete death)): 70
- Post-emerge Herbicidal Activity AMARE (phytotoxicity rating) [16, 21]: 100
- Post-emerge Herbicidal Activity CASOB (phytotoxicity rating) ([17]; 63 g ai/ha): 40
- Post-emerge Herbicidal Activity CASOB (phytotoxicity rating) ([17]; 250 g ai/ha): 80
- Post-emerge Herbicidal Activity ABUTH (phytotoxicity rating) ([18]; 63 g ai/ha): 100
- Post-emerge Herbicidal Activity ABUTH (phytotoxicity rating) ([18]; 250 g ai/ha): 100
- Post-emerge Herbicidal Activity CORN (crop damage rating) ([19]; 63 g ai/ha): 70
- Post-emerge Herbicidal Activity CORN (crop damage rating) ([19]; 250 g ai/ha): 90
- Post-emerge Herbicidal Activity RICE (crop damage rating) ([20]; 63 g ai/ha): 60
- Post-emerge Herbicidal Activity RICE (crop damage rating) ([20]; 250 g ai/ha): 90

SMILES: Cn1c(C(F)(F)F)cc(=O)n(-c2ccc(C#N)cc2NC(=O)C=Cc2ccccc2)c1=O [2-141]
- phytotoxicity rating AMARE ([1]; 63 g ai/ha, scale 0-100): 100
- phytotoxicity rating AMARE ([1]; 250 g ai/ha, scale 0-100): 100
- phytotoxicity rating ECHCG ([2]; 63 g ai/ha, scale 0-100): 30
- phytotoxicity rating ECHCG ([2]; 250 g ai/ha, scale 0-100): 95
- phytotoxicity rating SETVI ([3]; 63 g ai/ha, scale 0-100): 30
- phytotoxicity rating SETVI ([3]; 250 g ai/ha, scale 0-100): 70
- phytotoxicity rating IPOHE ([4]; 63 g ai/ha, scale 0-100): 40
- phytotoxicity rating IPOHE ([4]; 250 g ai/ha, scale 0-100): 100
- phytotoxicity rating CHEAL ([5]; 63 g ai/ha, scale 0-100): 100
- phytotoxicity rating CHEAL ([5]; 250 g ai/ha, scale 0-100): 100
- phytotoxicity rating DIGSA ([6]; 63 g ai/ha, scale 0-100): 35
- phytotoxicity rating DIGSA ([6]; 250 g ai/ha, scale 0-100): 70
- phytotoxicity rating CASOB ([7]; 63 g ai/ha, scale 0-100): 30
- phytotoxicity rating CASOB ([7]; 250 g ai/ha, scale 0-100): 90
- phytotoxicity rating ABUTH ([8]; 63 g ai/ha, scale 0-100): 100
- phytotoxicity rating ABUTH ([8]; 250 g ai/ha, scale 0-100): 100
- phytotoxicity rating CORN (crop damage) ([9]; 63 g ai/ha): 0
- phytotoxicity rating CORN (crop damage) ([9]; 250 g ai/ha): 45
- phytotoxicity rating RICE (crop damage) ([10]; 63 g ai/ha): 30
- phytotoxicity rating RICE (crop damage) ([10]; 250 g ai/ha): 70
- ECHCG phytotoxicity rating ([11]; 63 g ai/ha): 10
- ECHCG phytotoxicity rating ([11]; 250 g ai/ha): 30
- SETVI phytotoxicity rating ([12]; 63 g ai/ha): 20
- SETVI phytotoxicity rating ([12]; 250 g ai/ha): 40
- IPOHE phytotoxicity rating ([13]; 63 g ai/ha): 100
- IPOHE phytotoxicity rating ([13]; 250 g ai/ha): 95
- CHEAL phytotoxicity rating ([14]; 63 g ai/ha): 95
- CHEAL phytotoxicity rating ([14]; 250 g ai/ha): 100
- DIGSA phytotoxicity rating ([15]; 63 g ai/ha): 10
- DIGSA phytotoxicity rating ([15]; 250 g ai/ha): 30
- AMARE phytotoxicity rating ([16]; 63 g ai/ha, rating scale 0-100): 95
- AMARE phytotoxicity rating [16, 21]: 95
- CASOB phytotoxicity rating ([17]; 63 g ai/ha): 50
- CASOB phytotoxicity rating ([17]; 250 g ai/ha): 95
- ABUTH phytotoxicity rating ([18]; 63 g ai/ha): 100
- ABUTH phytotoxicity rating ([18]; 250 g ai/ha): 100
- CORN phytotoxicity rating (crop damage) ([19]; 63 g ai/ha): 5
- CORN phytotoxicity rating (crop damage) ([19]; 250 g ai/ha): 10
- RICE phytotoxicity rating (crop damage) ([20]; 63 g ai/ha): 15
- RICE phytotoxicity rating (crop damage) ([20]; 250 g ai/ha): 65
